Drawing on patent publication US4794122A, “Novel benzimidazolyl-thiomethyl-benzothiazoles” (Uclaf; Roussel, priority 1986, dated 1988), this text covers IC50 for three compounds.

In the test the target is T1, 5-lipoxygenase (Rattus norvegicus, UniProt P12527).
T1 construct: prelabelled rat peritoneal neutrophils; endogenous in cells; host or cells: rat peritoneal neutrophils
T1 sequence (P12527 1-673): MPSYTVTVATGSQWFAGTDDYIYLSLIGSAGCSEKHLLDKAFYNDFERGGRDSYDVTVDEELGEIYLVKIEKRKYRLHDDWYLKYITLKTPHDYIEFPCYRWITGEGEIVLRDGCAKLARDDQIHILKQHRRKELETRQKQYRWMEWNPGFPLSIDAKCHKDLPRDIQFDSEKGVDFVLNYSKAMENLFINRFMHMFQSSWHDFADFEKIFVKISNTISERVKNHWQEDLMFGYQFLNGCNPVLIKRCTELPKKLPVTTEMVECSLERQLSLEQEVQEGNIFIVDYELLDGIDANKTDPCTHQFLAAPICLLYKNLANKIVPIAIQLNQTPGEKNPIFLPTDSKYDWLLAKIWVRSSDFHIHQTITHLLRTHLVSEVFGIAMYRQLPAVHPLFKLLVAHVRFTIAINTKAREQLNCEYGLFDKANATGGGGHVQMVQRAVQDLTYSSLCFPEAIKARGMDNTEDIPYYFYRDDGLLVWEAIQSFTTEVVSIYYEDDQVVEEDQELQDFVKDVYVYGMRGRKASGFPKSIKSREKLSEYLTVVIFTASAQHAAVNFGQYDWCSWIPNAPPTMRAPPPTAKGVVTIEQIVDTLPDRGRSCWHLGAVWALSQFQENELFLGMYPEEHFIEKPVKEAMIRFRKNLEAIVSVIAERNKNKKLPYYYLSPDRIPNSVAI
The experiment in a line: Inhibition of Ca++ ionophore (A23187)-induced release of 5-lipoxygenase products (leukotriene B4 and 5-HETE) from [14C]-arachidonic acid prelabelled rat peritoneal neutrophils. The class given is cell-based. Conditions: A23187-induced release of leukotriene B4 and 5-HETE, determined graphically from dose response curves, read-out: micro molecular concentration of the compounds causing a 50% inhibition of the control response for 5-lipoxygenase. As for the experimental part:
Inhibition of Ca^++ ionophore (A23187)-induced release of 5-lipoxygenase products (leukotriene B4 and 5-HETE) from [^14 C]-arachidonic acid prelabelled rat peritoneal neutrophils was determined by a modification of the method of Ahnfelt-Ronne et al [Biochemical Pharmacology, Vol. 31, (1982), No. 16, p. 2619-2624].
Regarding `c1ccc2[nH]c(SCc3nc4ccccc4s3)nc2c1` [Example 1, 2-(1H-benzimidazol-2-yl-thiomethyl)-benzothiazole], the IC50 worked out at 3500 nM.
Next, `Clc1ccc2[nH]c(SCc3nc4ccccc4s3)nc2c1` [Example 2, 2-(5-chloro-1H-benzimidazol-2-yl-thiomethyl)benzothiazole]: 590 nM; `Clc1cc2nc(SCc3nc4ccccc4s3)[nH]c2cc1Cl` [Example 3, 2-(5,6-dichloro-1H-benzimidazol-2-yl-thiomethyl)benzothiazole]: 230 nM.
